Structures are written as SMILES.

Here are results for 23 molecules from patent US9951025B2, “Halogenopyrazoles as inhibitors of thrombin” (VERSEON CORPORATION, priority 2013, dated 2018).

This experiment addresses T1, Human thrombin (Homo sapiens, UniProt P00734).
T1 construct: purchased Haematologic Technologies Inc
Kind of experiment: thrombin protease inhibition assay, chromogenic substrate S-2238. The experiment is classed as biochemical. The following applies: 3 nM human thrombin, 125 μM S-2238, 10 min pre-incubation, RT. The protocol:
Compounds described herein can be assayed, by a variety of methods known in the art and described herein, for inhibition of biological activity, e.g., protease activity, of a variety of proteins, e.g., thrombin.
The thrombin activity reported herein (e.g., Table A) was obtained as follows. […] Thrombin was assayed in buffer containing 0.05 M Tris (pH 7.4), 0.015 M NaCl and 0.01% PEG-8000. The final concentration of enzyme used was 3 nM thrombin. […] All assays were performed in 96-well microtiter plates at room temperature (RT). […] Inhibitor IC50 values were determined by adding test compound as ten point, three-fold serial dilutions in buffer solution, as known in the art. The plate was read at 10 minutes after substrate addition. The IC50 was calculated by plotting the percent (%) inhibition against compound concentration and fitting the data to a constrained four parameter sigmoidal curve, as known in the art.

The term IC50 denotes the point on the concentration scale where inhibition reaches its midpoint. A low value points to higher potency. With `CN(C)c1cccc2c(S(=O)(=O)Oc3ccccc3C(=O)n3nc(-c4ccccc4)c(F)c3NCc3ccc(Cl)s3)cccc12` [Compound 26, 2-(5-[(5-chlorothiophen-2-yl)methyl]amino-4-fluoro-3-phenyl-1H-pyrazole-1-carbonyl)phenyl 5-(dimethylamino)naphthalene-1-sulfonate], the IC50 was 0.1 to 1 µM.

`O=C(n1nc(C2CCOCC2)c(F)c1NCc1ccc(Cl)s1)C1(CO)CC1` [Compound 61, [1-(5-[(5-chlorothiophen-2-yl)methyl]amino-4-fluoro-3-(oxan-4-yl)-1H-pyrazole-1-carbonyl)cyclopropyl]methanol] yielded an IC50 below 0.1 µM. The same measure for `COc1ccc(C(=O)n2nc(-c3ccccc3)c(F)c2NCc2ccc(Cl)s2)c(OC)c1` [Compound 38, N-[(5-chlorothiophen-2-yl)methyl]-1-(2,4-dimethoxybenzoyl)-4-fluoro-3-phenyl-1H-pyrazol-5-amine]: below 0.1 µM; for `CN(C)c1cccc2c(S(=O)(=O)N3CCC(c4nn(C(=O)C(C)(C)CO)c(NCc5ccc(Cl)s5)c4F)CC3)cccc12` [Compound 1, 1-(5-[(5-chlorothiophen-2-yl)methyl]amino-3-(1-[5-(dimethylamino)naphthalen-1-yl]sulfonylpiperidin-4-yl)-4-fluoro-1H-pyrazol-1-yl)-3-hydroxy-2,2-dimethylpropan-1-one]: below 0.1 µM; for `O=C(c1cccc2c1OCCO2)n1nc(C2CCNCC2)c(F)c1NCc1ccc(Cl)s1` [Compound 33, N-[(5-chlorothiophen-2-yl)methyl]-1-(2,3-dihydro-1,4-benzodioxine-5-carbonyl)-4-fluoro-3-(piperidin-4-yl)-1H-pyrazol-5-amine]: below 0.1 µM.

With `CC(C)(C)C(=O)n1nc(-c2ccc(N3CCOCC3=O)cc2)c(F)c1NCc1ccc(Cl)s1` [Compound 28, 4-[4-(5-[(5-chlorothiophen-2-yl)methyl]amino-1-(2,2-dimethylpropanoyl)-4-fluoro-1H-pyrazol-3-yl)phenyl]morpholin-3-one], the IC50 is below 0.1 µM. The molecule `COc1ccccc1C(=O)n1nc(-c2ccc(N3CCCC3=O)cc2)c(F)c1NCc1ccc(Cl)s1` [Compound 19, 1-[4-(5-[(5-chlorothiophen-2-yl)methyl]amino-4-fluoro-1-(2-methoxybenzoyl)-1H-pyrazol-3-yl)phenyl]pyrrolidin-2-one] gave an IC50 below 0.1 µM. As for `O=C(c1ccccc1)n1nc(C2CCOCC2)c(F)c1NCc1ccc(Cl)s1` [Compound 24, 1-benzoyl-N-[(5-chlorothiophen-2-yl)methyl]-4-fluoro-3-(oxan-4-yl)-1H-pyrazol-5-amine], the IC50 is below 0.1 µM. In turn, `O=C(N1CCC(c2n[nH]c(NCc3ccc(Cl)s3)c2F)CC1)C1(O)CC1` [Compound 21, 1-[4-(5-[(5-chlorothiophen-2-yl)methyl]amino-4-fluoro-1H-pyrazol-3-yl)piperidine-1-carbonyl]cyclopropan-1-ol] gave an IC50 of 0.1 to 1 µM. The same measure for `COC(C)(C)C(=O)n1nc(C2CCNCC2)c(F)c1NCc1ccc(Cl)s1` [Compound 7, 1-(5-[(5-chlorothiophen-2-yl)methyl]amino-4-fluoro-3-(piperidin-4-yl)-1H-pyrazol-1-yl)-2-methoxy-2-methylpropan-1-one]: below 0.1 µM; for `CC(C)(C)C(=O)n1nc(-c2ccccn2)c(F)c1NCc1ccccc1` [Compound 22, 1-[5-(benzylamino)-4-fluoro-3-(pyridin-2-yl)-1H-pyrazol-1-yl]-2,2-dimethylpropan-1-one]: below 0.1 µM; for `COc1ccccc1C(=O)n1nc(C2CCN(S(=O)(=O)c3cccc4c(N(C)C)cccc34)CC2)c(F)c1NCc1ccc(Cl)s1` [Compound 40, N-[(5-chlorothiophen-2-yl)methyl]-3-(1-[5-(dimethylamino)naphthalen-1-yl]sulfonylpiperidin-4-yl)-4-fluoro-1-(2-methoxybenzoyl)-1H-pyrazol-5-amine]: above 1 µM. Consider `COc1ccccc1C(=O)n1nc(-c2ccccn2)c(F)c1NCc1ccc(Cl)s1` [Compound 43, N-[(5-chlorothiophen-2-yl)methyl]-4-fluoro-1-(2-methoxybenzoyl)-3-(pyridin-2-yl)-1H-pyrazol-5-amine], for which the IC50 was below 0.1 µM.

As to `O=C(c1ccoc1)n1nc(C2CCOCC2)c(F)c1NCc1ccc(Cl)s1` [Compound 49, N-[(5-chlorothiophen-2-yl)methyl]-4-fluoro-1-(furan-3-carbonyl)-3-(oxan-4-yl)-1H-pyrazol-5-amine], the IC50 is below 0.1 µM. For `COCCOCC(C)(C)C(=O)n1nc(-c2ccccc2)c(F)c1NCc1ccc(Cl)s1` [Compound 13, 1-(5-[(5-chlorothiophen-2-yl)methyl]amino-4-fluoro-3-phenyl-1H-pyrazol-1-yl)-3-(2-methoxyethoxy)-2,2-dimethylpropan-1-one], the IC50 is below 0.1 µM. `CC1(C(=O)n2nc(-c3ccccc3)c(F)c2NCc2ccc(Cl)s2)CCOCC1` [Compound 48, N-[(5-chlorothiophen-2-yl)methyl]-4-fluoro-1-(4-methyloxane-4-carbonyl)-3-phenyl-1H-pyrazol-5-amine] displayed an IC50 below 0.1 µM. The same measure for `CC(C)(C)C(=O)n1nc(-c2ccccc2)c(F)c1NCc1ccccc1` [Compound 23, 1-[5-(benzylamino)-4-fluoro-3-phenyl-1H-pyrazol-1-yl]-2,2-dimethylpropan-1-one]: below 0.1 µM; for `CC1(C(=O)n2nc(-c3ccccc3)c(F)c2NCc2ccc(Cl)s2)COC1` [Compound 46, N-[(5-chlorothiophen-2-yl)methyl]-4-fluoro-1-(3-methyloxetane-3-carbonyl)-3-phenyl-1H-pyrazol-5-amine]: above 1 µM. Regarding `COCC(C)(C)C(=O)n1nc(C2CCNCC2)c(F)c1NCc1ccc(Cl)s1` [Compound 9, 1-(5-[(5-chlorothiophen-2-yl)methyl]amino-4-fluoro-3-(piperidin-4-yl)-1H-pyrazol-1-yl)-3-methoxy-2,2-dimethylpropan-1-one], the IC50 is below 0.1 µM. The molecule `CN(C)c1cccc2c(S(=O)(=O)Oc3ccc(C(=O)n4nc(-c5ccccc5)c(F)c4NCc4ccc(Cl)s4)cc3)cccc12` [Compound 27, 4-(5-[(5-chlorothiophen-2-yl)methyl]amino-4-fluoro-3-phenyl-1H-pyrazole-1-carbonyl)phenyl 5-(dimethylamino)naphthalene-1-sulfonate] registered an IC50 above 1 µM. `O=C(c1cccc2c1OCCO2)n1nc(NCc2ccc(Cl)s2)c(F)c1C1CCOCC1` [Compound 35, N-[(5-chlorothiophen-2-yl)methyl]-1-(2,3-dihydro-1,4-benzodioxine-5-carbonyl)-4-fluoro-5-(oxan-4-yl)-1H-pyrazol-3-amine] displayed a 50% inhibitory concentration (IC50) above 1 µM. Regarding `COc1ccccc1C(=O)n1nc(-c2ccccc2)c(F)c1NCc1ccc(Cl)s1` [Compound 44, N-[(5-chlorothiophen-2-yl)methyl]-4-fluoro-1-(2-methoxybenzoyl)-3-phenyl-1H-pyrazol-5-amine], the IC50 is below 0.1 µM.

`COc1ccccc1C(=O)n1nc(-c2ccc3c(c2)CCCC3=O)c(F)c1NCc1ccc(Cl)s1` [Compound 31, 6-(5-[(5-chlorothiophen-2-yl)methyl]amino-4-fluoro-1-(2-methoxybenzoyl)-1H-pyrazol-3-yl)-1,2,3,4-tetrahydronaphthalen-1-one]: the IC50 was below 0.1 µM.
